Data from US9399639B2, “Substituted azaindole compounds, salts, pharmaceutical compositions thereof and methods of use” (Calitor Sciences, LLC, priority 2012, dated 2016).

Tests used:
Colo-205 Tumor Xenograft = assay: Colo-205 tumor xenograft model, tumor growth inhibition; assay type: in vivo, athymic nude mice; details: Colo-205 xenograft, p.o., 15 days
Procedure: The efficacy of compounds disclosed herein is evaluated in a standard murine model of tumorigenesis. Human tumor cells (i.e., Colo-205 Tumor Xenograft models) are expended in culture, harvested, and injected subcutaneously onto the rear flank of 6-7 week old female athymic nude mice (BALB/cA nu/nu, Shanghai SLAC Laboratory Animal, Co.) (n=10 for vehicle group, n=8 for each dosing group). When tumor reaches a volume of 100-250 mm^3, animals are randomly divided into vehicle control (for example, 5% PEG400+5% Solutol HS 15 in water or 5% EtOH+5% CremophorEL+1% HCl (11.7%), pH 2.2 in water) and compound groups. Subsequent administration of compound by oral gavage (for example, 6-60 mpk/dose, dissolved in 5% PEG400+5% Solutol HS 15 in water or 5% EtOH+5% CremophorEL+1% HCl (11.7%), pH 2.2 in water) begins anywhere from day 0 to day 15 post tumor cell challenge and generally continues with once a day for the duration of the experiment.
Progression of tumor growth is assessed by tumor volumes and recorded as a function of time. The long (L) and short (W) axes of the subcutaneous tumors are measured with calipers twice weekly, and the tumor volume (TV) calculated as (L×W^2)/2). TGI is calculated from the difference between the median tumor volumes of vehicle-treated and drug-treated mice, expressed as a percentage of the median tumor volume of the vehicle-treated control group, by the following relation:
Initial statistical analysis is done by repeated measures analysis of variance (RMANOVA), Followed by Scheffe post-hoc testing for multiple comparisons. Vehicle alone (2% HPMC+1% Tween-80, or the like) is the negative control.
The compouds described herein were also administrated orally (p.o.) once a day (QD) or (BID) for 15 days in Colo-205 xenograft animal model. At doses of 20 mg/kg, the compouds produced statistically significant inhibition of growth of certain tumors grown subcutaneously in athymic nude mice.

[1] = Compound stability in human liver microsomes; assay type: in vitro ADME; details: 1 μM
Procedure: (§1) Human or rat liver microsomes incubations were conducted in duplicate in polypropylene tubes. […] Compounds were dissolved in DMSO and diluted with PBS such that the final concentration of DMSO was 0.05%. The enzymatic reactions were commenced with the addition of protein after a 3 min preincubation and incubated in a water bath open to the air at 37° C. Reactions were terminated at various time points (0, 5, 10, 15, 30, 60 min) by adding equal volume of ice-cold acetonitrile. The samples were stored at −80° C. until LC/MS/MS assays.
(§2) The concentrations of compounds in the incubation mixtures of human (or rat) liver microsomes were determined by a LC/MS/MS method. The ranges of the linearity in the concentration range were determined for each tested compounds.
(§3) A parallel incubation was performed using denatured microsomes as the negative control, and reactions were terminated at various time points (for example, 0, 15, 60 min) after incubation at 37° C.
(§4) Dextromethorphan (70 μM) was selected as the positive control, and reactions were terminated at various time points (0, 5, 10, 15, 30, 60 min) after incubation at 37° C. Both positive and negative control samples were included in each assay to ensure the integrity of the microsomal incubation system.
(§5) Alternatively, the stability of some of the compounds disclosed herein in human (or rat) liver microsomes were also conducted in the following protocol. The incubations were conducted in duplicate in polypropylene tubes. […] Compounds were dissolved in DMSO and diluted with K-buffer such that the final concentration of DMSO was 0.2%. The enzymatic reactions were commenced with the addition of 15 μL of NADPH (final concentration: 2 mM) after 10 min preincubation and incubated in a 37° C. incubator. Reactions were terminated at various time points (0, 15, 30, 60 min) by adding 135 μL acetonitrile (contain IS). Protein is removed by centrifugation with 4,000 rpm, 10 min.
(§6) In the above protocol, ketanserin (1 μM) was selected as the positive control, and reactions were terminated at various time points (0, 15, 30, 60 min) after incubation at 37° C. The positive control sample was included in each assay to ensure the integrity of the microsomal incubation system.
(§7) The concentrations of compounds in liver microsome incubations were plotted as a percentage of the relevant zero time point control for each reaction. The in vivo CLint were extrapolated (ref: Naritomi et al., Prediction of human hepatic clearance from in vivo animal experiments and in vitro metabolic studies with liver microsomes from animals and humans, Drug Metab. Dispos., 2001, 29: 1316-1324.) […]

[2] = Compound stability in rat liver microsomes; assay type: in vitro ADME; details: 1 μM
Procedure: as §1, §2, §3, §4, §5, §6, §7

[3] = cited from earlier work
[4] = Pharmacokinetics in beagle dogs; assay type: in vivo; details: vemurafenib dosed
From the text: (§8) Compounds disclosed herein are prodrugs. […] However, the prodrug compounds are modified in vivo to produce a parent compound that has known inhibitory activities against certain protein kinases. Kinase inhibition activity of prodrug compounds is established by quantitating the blood or plasma levels of parent compound after prodrug administration. In vivo blood or plasma levels are reported as Cmax (maximum blood or plasma concentration) and AUC (area under curve from zero to a certain period of time or infinity, a measure of total drug exposure). Methods of measuring Cmax, AUC and other pharmacokinetic parameters in dogs and rats are provided in Example C.
(§9) The LC/MS/MS system used in the analysis consists of an Agilent 1200 Series vacuum degasser, binary pump, well-plate autosampler, thermostated column compartment, the Agilent G6430 TripleQuadrupole Mass Spectrometer with an electrospray ionization (ESI) source. Quantitative analysis was carried out using MRM mode. The parameters for MRM transitions are in the Table A.
(§10) An Agilent XDB-C18, 2.1×30 mm, 3.5 μM column was used for the analysis. 5 μL of the samples were injected. Analysis condition: The mobile phase was 0.1% formic acid in water (A) and 0.1% formic acid in methanol (B). The flow rate was 0.4 mL/min. And the gradient of Mobile phase was in the Table B.
(§11) Alternatively, an Agilent 6330 series LC/MS/MS spectrometer equipped with G1312A binary pumps, a G1367A autosampler and a G1314C UV detector was used in the analysis. An ESI source was used on the LC/MS/MS spectrometer. The analysis was done in positive ion mode as appropriate and the MRM transition for each analyte was optimized using standard solution. A Capcell MP-C18 100×4.6 mm I.D., […] column (Phenomenex, Torrance, Calif., USA) was used during the analysis. The mobile phase was 5 mM ammonia acetate, 0.1% MeOH in water (A): 5 mM ammonia acetate, 0.1% MeOH in acetonitrile (B) (70:30, v/v). The flow rate was 0.6 mL/min. Column was maintained at ambient temperature. 20 μL of the samples were injected.
(§12) Selected compounds of the invention and Vemurafenib were assessed in pharmacokinetic studies in mice, rats, dogs or monkeys. The compounds were administered as a water solution, 2% HPMC+1% TWEEN® 80 in water solution, 5% DMSO+5% solutol in saline, 4% MC or capsule. For the intravenous administration, the animals were generally given at 1 or 2 mg/kg dose. For the oral (p.o.) dosing, mice and rats were generally given 5 or 10 mg/kg dose, and dogs and monkeys were generally given 7-100 mg/kg dose. The blood samples (0.3 mL) were drawn at 0.25, 0.5, 1.0, 2.0, 3.0, 4.0, 6.0, 8.0, 12 and 24 h time points or 0.083, 0.25, 0.5, 1.0, 2.0, 4.0, 6.0, 8.0 and 24 h time points and centrifuged at 3,000 or 4000 rpm for 2 to 10 min. The plasma solutions are collected and stored at −20° C. or −70° C. before analyzed by LC/MS/MS as described above.

B-Raf = B-Raf V600E vs wild-type, purified kinase assays; cited from earlier work
[5] = Pharmacokinetics in SD rats; assay type: in vivo; details: vemurafenib dosed
From the text: as §8, §9, §10, §11, §12

[6] = Sprague-Dawley, rat, plasma, IV 1 mg/kg
[7] = Sprague-Dawley, rat, plasma, PO 10 mg/kg

SMILES: CCCS(=O)(=O)Nc1ccc(F)c(C(=O)c2cn(C(C)OP(=O)([O-])[O-])c3ncc(-c4ccc(Cl)cc4)cc23)c1F.[Na+].[Na+] (centres unmarked) [Ex. 32, sodium 1-(5-(4-chlorophenyl)-3-(2,6-difluoro-3-(propylsulfonamido)benzoyl)-1H-pyrrolo[2,3-b]pyridin-1-yl)ethyl phosphate]
- TGI % (on the last day of dosing) (Colo-205 Tumor Xenograft; 6 mg/kg/qd): 29%
- TGI % (on the last day of dosing) (Colo-205 Tumor Xenograft; 20 mg/kg/bid): 102%
- TGI % (on the last day of dosing) (Colo-205 Tumor Xenograft; 20 mg/kg/qd): 68%
- TGI % (on the last day of dosing) (Colo-205 Tumor Xenograft; 60 mg/kg/qd): 110%
- Human T1/2 [1]: ∞
- Rat T1/2 [2]: ∞

SMILES: CCCS(=O)(=O)Nc1ccc(F)c(C(=O)c2cn(COP(=O)([O-])[O-])c3ncc(-c4ccc(Cl)cc4)cc23)c1F.[Na+].[Na+] [Ex. 25, sodium (5-(4-chlorophenyl)-3-(2,6-difluoro-3-(propylsulfonamido)benzoyl)-1H-pyrrolo[2,3-b]pyridin-1-yl)methyl phosphate]
- TGI % (on the last day of dosing) (Colo-205 Tumor Xenograft; 6 mg/kg/qd): 41%
- TGI % (on the last day of dosing) (Colo-205 Tumor Xenograft; 20 mg/kg/bid): 95%
- TGI % (on the last day of dosing) (Colo-205 Tumor Xenograft; 20 mg/kg/qd): 59%
- TGI % (on the last day of dosing) (Colo-205 Tumor Xenograft; 60 mg/kg/qd): 108%
- Human T1/2 [1]: ∞
- Rat T1/2 [2]: ∞

SMILES: CCCS(=O)(=O)Nc1ccc(F)c(C(=O)c2c[nH]c3ncc(-c4ccc(Cl)cc4)cc23)c1F [Vemurafenib, N-(3-(5-(4-chlorophenyl)-1H-pyrrolo[2,3-b]pyridine-3-carbonyl)-2,4-difluorophenyl)propane-1-sulfonamide]
- TGI % (on the last day of dosing) (Colo-205 Tumor Xenograft; 6 mg/kg/qd): 33%
- TGI % (on the last day of dosing) (Colo-205 Tumor Xenograft; 20 mg/kg/bid): 101%
- TGI % (on the last day of dosing) (Colo-205 Tumor Xenograft; 20 mg/kg/qd): 73%
- TGI % (on the last day of dosing) (Colo-205 Tumor Xenograft; 60 mg/kg/qd): 104%
- solubility in water [3]: low solubility in water
- F ([4]; PO 10 mg/kg): 33.4%
- AUC(0-t) ([4]; dog, plasma, IV 1 mg/kg): 4880 ng·h/mL
- half-life ([4]; dog, plasma, IV 1 mg/kg): 1.59 h
- AUC(0-t) ([4]; dog, plasma, PO 10 mg/kg): 16500 ng·h/mL
- Cmax ([4]; dog, plasma, PO 10 mg/kg): 2150 ng/mL
- Tmax ([4]; dog, plasma, PO 10 mg/kg): 2 h
- half-life ([4]; dog, plasma, PO 10 mg/kg): 3.9 h
- selectivity for the V600E mutation over the wild-type kinase (B-Raf): 3 fold
- F ([5]; PO 10 mg/kg): 104%
- AUC(0-t) [5, 6]: 25200 ng·h/mL
- half-life [5, 6]: 3.75 h
- AUC(0-t) [5, 7]: 261000 ng·h/mL
- Cmax [5, 7]: 25400 ng/mL
- Tmax [5, 7]: 4 h
- half-life [5, 7]: 3.54 h
